pIC50: −log10 of the molar value. Like-named read-outs stand apart in the source and are kept apart here. Positions of bridges follow the written chain, without caps; N, C: chain ends. Residues, ends and D or L forms follow the SMILES beside them.
Legend:
[1] = biological target: hNav1.3 (Homo sapiens, UniProt Q9NY46); experiment: cell-based; conditions: IonWorks Quattro; clamped to −110 mV, depolarized to −10 mV, 5 min after compound; n=2; read-out: IWQ Use Nav1.3
[2] = biological target: hNav1.5 (Homo sapiens, UniProt Q14524); experiment: cell-based; conditions: for IC50: IWQ Use Nav1.5 (μM)
[3] = IonWorks Quattro, clamped to −110 mV, depolarized to −10 mV, 5 min after compound, n=2, read-out: IWQ Use Nav1.5

Sequence of hNav1.3 (Q9NY46 whole entry, looked up): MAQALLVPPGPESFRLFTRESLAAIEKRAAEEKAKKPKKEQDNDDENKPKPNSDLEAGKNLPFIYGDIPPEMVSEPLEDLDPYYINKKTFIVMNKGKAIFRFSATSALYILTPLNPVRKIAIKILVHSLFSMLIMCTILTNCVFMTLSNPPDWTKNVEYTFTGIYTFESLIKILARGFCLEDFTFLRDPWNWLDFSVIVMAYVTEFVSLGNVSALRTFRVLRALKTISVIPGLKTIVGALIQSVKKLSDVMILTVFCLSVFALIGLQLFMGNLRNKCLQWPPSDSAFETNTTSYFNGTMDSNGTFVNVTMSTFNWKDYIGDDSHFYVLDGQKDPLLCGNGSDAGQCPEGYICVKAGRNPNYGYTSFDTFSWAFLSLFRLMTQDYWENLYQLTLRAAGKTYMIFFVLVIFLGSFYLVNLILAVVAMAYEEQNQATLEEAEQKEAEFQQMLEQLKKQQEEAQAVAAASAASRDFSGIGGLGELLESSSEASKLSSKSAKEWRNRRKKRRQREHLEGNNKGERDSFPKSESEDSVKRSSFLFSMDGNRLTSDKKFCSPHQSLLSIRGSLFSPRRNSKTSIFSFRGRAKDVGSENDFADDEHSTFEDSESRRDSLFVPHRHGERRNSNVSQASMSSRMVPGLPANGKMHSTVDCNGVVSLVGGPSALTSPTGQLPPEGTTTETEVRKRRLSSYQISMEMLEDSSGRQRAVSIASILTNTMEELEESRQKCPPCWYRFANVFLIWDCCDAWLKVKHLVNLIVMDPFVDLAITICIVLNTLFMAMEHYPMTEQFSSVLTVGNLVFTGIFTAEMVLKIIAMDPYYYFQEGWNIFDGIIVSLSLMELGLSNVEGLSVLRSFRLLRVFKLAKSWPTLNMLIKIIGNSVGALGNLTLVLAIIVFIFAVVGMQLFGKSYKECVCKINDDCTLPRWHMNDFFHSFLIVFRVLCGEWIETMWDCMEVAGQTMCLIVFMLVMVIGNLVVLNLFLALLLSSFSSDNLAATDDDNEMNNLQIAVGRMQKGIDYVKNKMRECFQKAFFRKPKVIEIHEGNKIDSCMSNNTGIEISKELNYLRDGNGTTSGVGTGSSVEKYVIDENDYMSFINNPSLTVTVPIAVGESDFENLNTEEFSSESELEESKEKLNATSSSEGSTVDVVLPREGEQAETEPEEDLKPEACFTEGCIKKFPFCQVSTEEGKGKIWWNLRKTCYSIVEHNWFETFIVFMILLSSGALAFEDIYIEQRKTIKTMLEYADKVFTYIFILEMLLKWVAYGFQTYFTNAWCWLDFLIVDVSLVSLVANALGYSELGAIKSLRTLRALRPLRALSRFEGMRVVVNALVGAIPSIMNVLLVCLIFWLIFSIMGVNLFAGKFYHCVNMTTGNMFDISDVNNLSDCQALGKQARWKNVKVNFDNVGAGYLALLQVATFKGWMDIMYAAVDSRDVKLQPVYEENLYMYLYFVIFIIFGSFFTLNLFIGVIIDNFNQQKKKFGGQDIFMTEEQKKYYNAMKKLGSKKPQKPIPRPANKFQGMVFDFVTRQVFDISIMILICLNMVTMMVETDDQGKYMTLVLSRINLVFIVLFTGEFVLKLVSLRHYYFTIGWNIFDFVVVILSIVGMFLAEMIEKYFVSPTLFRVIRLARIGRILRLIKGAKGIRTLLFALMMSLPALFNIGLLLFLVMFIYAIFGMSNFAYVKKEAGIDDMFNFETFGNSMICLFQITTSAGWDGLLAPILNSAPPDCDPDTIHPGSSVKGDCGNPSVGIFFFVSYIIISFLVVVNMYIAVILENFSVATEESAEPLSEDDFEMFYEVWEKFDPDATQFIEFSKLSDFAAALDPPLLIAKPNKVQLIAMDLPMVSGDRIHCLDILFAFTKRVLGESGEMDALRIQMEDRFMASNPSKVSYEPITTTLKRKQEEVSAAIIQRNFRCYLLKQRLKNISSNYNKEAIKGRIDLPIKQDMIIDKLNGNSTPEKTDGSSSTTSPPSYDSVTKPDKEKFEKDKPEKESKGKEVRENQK
Sequence of hNav1.5 (Q14524 whole entry, looked up): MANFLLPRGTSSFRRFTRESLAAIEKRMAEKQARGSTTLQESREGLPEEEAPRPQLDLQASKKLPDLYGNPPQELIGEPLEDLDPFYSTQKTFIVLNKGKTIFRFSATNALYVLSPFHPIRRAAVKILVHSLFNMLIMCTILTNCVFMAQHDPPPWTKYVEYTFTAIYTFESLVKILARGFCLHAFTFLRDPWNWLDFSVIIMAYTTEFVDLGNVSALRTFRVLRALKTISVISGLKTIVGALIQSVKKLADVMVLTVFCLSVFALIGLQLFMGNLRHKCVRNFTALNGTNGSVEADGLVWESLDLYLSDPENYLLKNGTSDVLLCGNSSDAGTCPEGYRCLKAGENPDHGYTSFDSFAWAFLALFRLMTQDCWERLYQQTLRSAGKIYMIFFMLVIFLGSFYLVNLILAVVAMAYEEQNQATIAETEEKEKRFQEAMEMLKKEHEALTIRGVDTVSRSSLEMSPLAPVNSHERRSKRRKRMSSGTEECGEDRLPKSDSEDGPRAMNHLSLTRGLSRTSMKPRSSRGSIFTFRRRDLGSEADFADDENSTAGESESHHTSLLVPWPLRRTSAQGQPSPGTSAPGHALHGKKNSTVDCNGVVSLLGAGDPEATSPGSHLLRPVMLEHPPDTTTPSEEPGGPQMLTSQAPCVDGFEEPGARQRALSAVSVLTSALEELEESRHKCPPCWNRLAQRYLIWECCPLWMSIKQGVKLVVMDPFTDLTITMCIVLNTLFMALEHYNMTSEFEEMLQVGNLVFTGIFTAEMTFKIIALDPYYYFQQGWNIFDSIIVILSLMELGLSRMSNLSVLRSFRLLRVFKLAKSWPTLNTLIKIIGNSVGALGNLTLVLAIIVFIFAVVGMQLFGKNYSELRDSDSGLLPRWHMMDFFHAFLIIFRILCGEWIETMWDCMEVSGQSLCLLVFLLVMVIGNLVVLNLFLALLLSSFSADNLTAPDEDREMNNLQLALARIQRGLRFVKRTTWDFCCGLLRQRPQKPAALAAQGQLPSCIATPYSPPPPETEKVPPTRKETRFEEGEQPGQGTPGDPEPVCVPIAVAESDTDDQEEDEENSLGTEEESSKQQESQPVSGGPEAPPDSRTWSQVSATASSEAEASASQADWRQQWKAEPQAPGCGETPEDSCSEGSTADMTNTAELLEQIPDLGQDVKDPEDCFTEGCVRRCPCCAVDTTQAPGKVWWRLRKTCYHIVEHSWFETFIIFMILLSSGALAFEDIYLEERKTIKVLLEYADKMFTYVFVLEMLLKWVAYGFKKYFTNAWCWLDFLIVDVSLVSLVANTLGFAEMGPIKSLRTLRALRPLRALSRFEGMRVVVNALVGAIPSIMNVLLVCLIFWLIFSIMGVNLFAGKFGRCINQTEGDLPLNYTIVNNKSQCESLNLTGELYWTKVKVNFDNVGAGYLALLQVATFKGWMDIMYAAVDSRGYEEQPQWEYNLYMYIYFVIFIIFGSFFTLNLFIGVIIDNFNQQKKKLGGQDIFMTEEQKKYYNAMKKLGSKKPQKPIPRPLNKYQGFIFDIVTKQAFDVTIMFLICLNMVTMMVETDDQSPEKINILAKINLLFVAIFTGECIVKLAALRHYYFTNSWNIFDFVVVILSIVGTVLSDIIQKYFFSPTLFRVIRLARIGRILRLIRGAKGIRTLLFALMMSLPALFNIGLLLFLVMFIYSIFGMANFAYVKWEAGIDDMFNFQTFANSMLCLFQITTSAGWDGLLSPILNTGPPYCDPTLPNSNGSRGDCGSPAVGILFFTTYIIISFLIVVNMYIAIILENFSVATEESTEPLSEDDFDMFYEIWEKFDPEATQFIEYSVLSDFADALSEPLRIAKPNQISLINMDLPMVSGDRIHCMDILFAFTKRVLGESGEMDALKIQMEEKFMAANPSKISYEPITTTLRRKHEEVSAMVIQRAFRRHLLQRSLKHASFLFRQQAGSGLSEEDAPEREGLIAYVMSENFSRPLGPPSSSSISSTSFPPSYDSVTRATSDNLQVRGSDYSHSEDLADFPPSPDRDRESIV

`CC[C@H](C)[C@@H]1NC(=O)[C@@H]2CSSC[C@@H]3NC(=O)[C@H](C(C)C)NC(=O)[C@H](CC(C)C)NC(=O)[C@H](CC(N)=O)NC(=O)[C@@H]4CCCN4C(=O)[C@H](CCCNC(=N)N)NC(=O)[C@H](CSSC[C@H](NC(=O)[C@@H](N)CCC(=O)O)C(=O)N[C@@H](CC(C)C)C(=O)NCC(=O)N[C@@H](Cc4ccccc4)C(=O)N[C@@H](CCSC)C(=O)N[C@@H](CCCNC(=N)N)C(=O)N[C@@H](CCCCN)C(=O)N2)NC(=O)[C@H](CSSC[C@@H](C(=O)N[C@@H](CCCCN)C(=O)N[C@@H](Cc2ccc(O)cc2)C(=O)N[C@H](C(=O)N[C@@H](Cc2ccccc2)C(N)=O)C(C)C)NC(=O)[C@H](Cc2c[nH]c4ccccc24)NC(=O)[C@H](CCCCN)NC(=O)[C@H](Cc2cnc[nH]2)NC(=O)[C@H]([C@@H](C)O)NC(=O)[C@H](CCCNC(=N)N)NC(=O)[C@H](CO)NC3=O)NC(=O)[C@H](CCCCN)NC(=O)[C@H](CC(=O)O)NC(=O)[C@H](CC(N)=O)NC(=O)[C@H](CC(=O)O)NC(=O)[C@@H]2CCCN2C1=O` [SEQ ID NO: 18] (H-ECLGFMRKCIPDNDKCCRPNLVCSRTHKWCKYVF-NH2; disulfide 2-17, 9-23, 16-30) showed a pIC50 [1] of 6.82 and a pIC50 [2, 3] of 4.85.

`CC[C@H](C)[C@@H]1NC(=O)[C@@H]2CSSC[C@@H]3NC(=O)[C@H](C(C)C)NC(=O)[C@H](CC(C)C)NC(=O)[C@H](CC(N)=O)NC(=O)[C@@H]4CCCN4C(=O)[C@H](CCCNC(=N)N)NC(=O)[C@H](CSSC[C@H](NC(=O)[C@H](C)N)C(=O)N[C@@H](CC(C)C)C(=O)NCC(=O)N[C@@H](Cc4ccccc4)C(=O)N[C@@H](CCSC)C(=O)N[C@@H](CCCNC(=N)N)C(=O)N[C@@H](CCCCN)C(=O)N2)NC(=O)[C@H](CSSC[C@@H](C(=O)N[C@@H](CCCCN)C(=O)N[C@@H](Cc2ccc(O)cc2)C(=O)N[C@H](C(=O)N[C@@H](Cc2ccccc2)C(N)=O)C(C)C)NC(=O)[C@H](Cc2c[nH]c4ccccc24)NC(=O)[C@H](CCCCN)NC(=O)[C@H](Cc2cnc[nH]2)NC(=O)[C@H]([C@@H](C)O)NC(=O)[C@H](CCCNC(=N)N)NC(=O)[C@H](CO)NC3=O)NC(=O)[C@H](CCCCN)NC(=O)[C@H](CC(=O)O)NC(=O)[C@H](CC(N)=O)NC(=O)[C@H](CC(=O)O)NC(=O)[C@@H]2CCCN2C1=O` [SEQ ID NO: 20] (H-ACLGFMRKCIPDNDKCCRPNLVCSRTHKWCKYVF-NH2; disulfide 2-17, 9-23, 16-30) gave a pIC50 [1] of 7.10 and a pIC50 [2, 3] of 5.01.

Work on `CC[C@H](C)[C@@H]1NC(=O)[C@@H]2CSSC[C@@H]3NC(=O)[C@H](C(C)C)NC(=O)[C@H](CC(C)C)NC(=O)[C@H](CC(N)=O)NC(=O)[C@@H]4CCCN4C(=O)[C@H](CCCNC(=N)N)NC(=O)[C@H](CSSC[C@H](NC(=O)[C@@H](N)CC(=O)O)C(=O)N[C@@H](CC(C)C)C(=O)N[C@@H](CCC(=O)O)C(=O)N[C@@H](Cc4ccccc4)C(=O)N[C@@H](CCSC)C(=O)N[C@@H](CCCNC(=N)N)C(=O)N[C@@H](CCCCN)C(=O)N2)NC(=O)[C@H](CSSC[C@@H](C(=O)N[C@@H](CCCCN)C(=O)N[C@@H](Cc2ccc(O)cc2)C(=O)N[C@H](C(=O)N[C@@H](Cc2ccccc2)C(N)=O)C(C)C)NC(=O)[C@H](Cc2c[nH]c4ccccc24)NC(=O)[C@H](CCCCN)NC(=O)[C@H](Cc2cnc[nH]2)NC(=O)[C@H]([C@@H](C)O)NC(=O)[C@H](CCCNC(=N)N)NC(=O)[C@H](CO)NC3=O)NC(=O)[C@H](CCCCN)NC(=O)[C@H](CC(=O)O)NC(=O)[C@H](CC(N)=O)NC(=O)[C@H](CC(=O)O)NC(=O)[C@@H]2CCCN2C1=O` [SEQ ID NO: 24] (H-DCLEFMRKCIPDNDKCCRPNLVCSRTHKWCKYVF-NH2; disulfide 2-17, 9-23, 16-30) yielded a pIC50 [1] of 5.88 and a pIC50 ([2]; IWQ Use Nav1.5) of 4.75.

Work on `CC[C@H](C)[C@@H]1NC(=O)[C@@H]2CSSC[C@@H]3NC(=O)[C@H](C(C)C)NC(=O)[C@H](CC(C)C)NC(=O)[C@H](CC(N)=O)NC(=O)[C@@H]4CCCN4C(=O)[C@H](CCCNC(=N)N)NC(=O)[C@H](CSSC[C@H](NC(=O)[C@@H](N)CC(=O)O)C(=O)N[C@@H](CC(C)C)C(=O)NCC(=O)N[C@@H](Cc4ccccc4)C(=O)N[C@@H](CCSC)C(=O)N[C@@H](CCCNC(=N)N)C(=O)N[C@@H](CCCCN)C(=O)N2)NC(=O)[C@H](CSSC[C@@H](C(=O)N[C@@H](CCCCN)C(=O)N[C@@H](Cc2ccc(O)cc2)C(=O)N[C@H](C(=O)N[C@@H](Cc2ccccc2)C(N)=O)C(C)C)NC(=O)[C@H](Cc2c[nH]c4ccccc24)NC(=O)[C@H](CCC(N)=O)NC(=O)[C@H](Cc2c[nH]cn2)NC(=O)[C@H]([C@@H](C)O)NC(=O)[C@H](CCCNC(=N)N)NC(=O)[C@H](CO)NC3=O)NC(=O)[C@H](CCCCN)NC(=O)[C@H](CC(=O)O)NC(=O)[C@H](CC(N)=O)NC(=O)[C@H](CC(=O)O)NC(=O)[C@@H]2CCCN2C1=O` [SEQ ID NO: 763, [Gln28]GpTx-1] (H-DCLGFMRKCIPDNDKCCRPNLVCSRTHQWCKYVF-NH2; disulfide 2-17, 9-23, 16-30) yielded a pIC50 ([2]; read-out: IWQ Use Nav1.5) of 4.64.

`CC[C@@H](C)[C@H]1NC(=O)[C@H]2CSSC[C@H]3NC(=O)[C@@H](C(C)C)NC(=O)[C@@H](CC(C)C)NC(=O)[C@@H](CC(N)=O)NC(=O)[C@H]4CCCN4C(=O)[C@@H](CCCNC(=N)N)NC(=O)[C@@H](CSSC[C@@H](NC(=O)[C@H](N)CC(=O)O)C(=O)N[C@H](CC(C)C)C(=O)NCC(=O)N[C@H](Cc4ccccc4)C(=O)N[C@H](CCSC)C(=O)N[C@H](CCCNC(=N)N)C(=O)N[C@H](CCCCN)C(=O)N2)NC(=O)[C@@H](CSSC[C@H](C(=O)N[C@H](CCCCN)C(=O)N[C@H](Cc2ccc(O)cc2)C(=O)N[C@@H](C(=O)N[C@H](Cc2ccccc2)C(N)=O)C(C)C)NC(=O)[C@@H](Cc2c[nH]c4ccccc24)NC(=O)[C@@H](CCCCN)NC(=O)[C@@H](Cc2c[nH]cn2)NC(=O)[C@@H]([C@H](C)O)NC(=O)[C@@H](CCCNC(=N)N)NC(=O)[C@@H](CO)NC3=O)NC(=O)[C@@H](CCCCN)NC(=O)[C@@H](CC(=O)O)NC(=O)[C@@H](CC(N)=O)NC(=O)[C@@H](CC(=O)O)NC(=O)[C@H]2CCCN2C1=O` [compound 2] gave an IC50 [2] of 11.3 µM.

`CC[C@H](C)[C@@H]1NC(=O)[C@@H]2CSSC[C@@H]3NC(=O)[C@H](C(C)C)NC(=O)[C@H](CC(C)C)NC(=O)[C@H](CC(N)=O)NC(=O)[C@@H]4CCCN4C(=O)[C@H](CCCNC(=N)N)NC(=O)[C@H](CSSC[C@H](NC(=O)[C@@H](N)CC(=O)O)C(=O)N[C@@H](CC(C)C)C(=O)NCC(=O)N[C@@H](Cc4ccccc4)C(=O)N[C@@H](CCSC)C(=O)N[C@@H](CCCNC(=N)N)C(=O)N[C@@H](CCCCN)C(=O)N2)NC(=O)[C@H](CSSC[C@@H](C(=O)N[C@@H](CCCCN)C(=O)N[C@@H](Cc2ccc(O)cc2)C(=O)N[C@H](C(=O)N[C@@H](Cc2ccccc2)C(N)=O)C(C)C)NC(=O)[C@H](Cc2c[nH]c4ccccc24)NC(=O)[C@H](CCCCN)NC(=O)[C@H](Cc2c[nH]cn2)NC(=O)[C@H](Cc2c[nH]cn2)NC(=O)[C@H](CCCNC(=N)N)NC(=O)[C@H](CO)NC3=O)NC(=O)[C@H](CCCCN)NC(=O)[C@H](CC(=O)O)NC(=O)[C@H](CC(N)=O)NC(=O)[C@H](CC(=O)O)NC(=O)[C@@H]2CCCN2C1=O` [compound 337] (H-DCLGFMRKCIPDNDKCCRPNLVCSRHHKWCKYVF-NH2; disulfide 2-17, 9-23, 16-30) gave a pIC50 ([2]; Table 22, IonWorks Quattro, use, […], read-out: IWQ Use Nav1.5) of 5.34.

For `CC[C@H](C)[C@@H]1NC(=O)[C@@H]2CSSC[C@@H]3NC(=O)[C@H](C(C)C)NC(=O)[C@H](CC(C)C)NC(=O)[C@H](CC(N)=O)NC(=O)[C@@H]4CCCN4C(=O)[C@H](CCCNC(=N)N)NC(=O)[C@H](CSSC[C@H](NC(=O)[C@@H](N)CC(=O)O)C(=O)N[C@@H](CC(C)C)C(=O)NCC(=O)N[C@@H](Cc4ccccc4)C(=O)N[C@@H](CCSC)C(=O)N[C@@H](CCCNC(=N)N)C(=O)N[C@@H](CCCCN)C(=O)N2)NC(=O)[C@H](CSSC[C@@H](C(=O)N[C@@H](CCCCN)C(=O)N[C@@H](Cc2ccc(O)cc2)C(=O)N[C@H](C(=O)N[C@H](Cc2ccccc2)C(N)=O)C(C)C)NC(=O)[C@H](Cc2c[nH]c4ccccc24)NC(=O)[C@H](CCCCN)NC(=O)[C@H](Cc2c[nH]cn2)NC(=O)[C@H]([C@@H](C)O)NC(=O)[C@H](CCCNC(=N)N)NC(=O)[C@H](CO)NC3=O)NC(=O)[C@H](CCCCN)NC(=O)[C@H](CC(=O)O)NC(=O)[C@H](CC(N)=O)NC(=O)[C@H](CC(=O)O)NC(=O)[C@@H]2CCCN2C1=O` [compound 404], the IC50 [2] was 20.7 µM.

Compound `CC[C@H](C)[C@@H]1NC(=O)[C@@H]2CSSC[C@@H]3NC(=O)[C@H](C(C)C)NC(=O)[C@H](CC(C)C)NC(=O)[C@H](CC(N)=O)NC(=O)[C@@H]4CCCN4C(=O)[C@H](CCCNC(=N)N)NC(=O)[C@H](CSSC[C@H](NC(=O)[C@@H](N)CC(=O)O)C(=O)N[C@@H](CC(C)C)C(=O)NCC(=O)N[C@@H](C)C(=O)N[C@@H](CCSC)C(=O)N[C@@H](CCCNC(=N)N)C(=O)N[C@@H](CCCCN)C(=O)N2)NC(=O)[C@H](CSSC[C@@H](C(=O)N[C@@H](CCCCN)C(=O)N[C@@H](Cc2ccc(O)cc2)C(=O)N[C@H](C(=O)N[C@@H](Cc2ccccc2)C(N)=O)C(C)C)NC(=O)[C@H](Cc2c[nH]c4ccccc24)NC(=O)[C@H](CCC(=O)O)NC(=O)[C@H](Cc2c[nH]cn2)NC(=O)[C@H]([C@@H](C)O)NC(=O)[C@H](CCCNC(=N)N)NC(=O)[C@H](CO)NC3=O)NC(=O)[C@H](CCCCN)NC(=O)[C@H](CC(=O)O)NC(=O)[C@H](CC(N)=O)NC(=O)[C@H](CC(=O)O)NC(=O)[C@@H]2CCCN2C1=O` [compound 691] has a pIC50 ([2]; IonWorks Quattro, use-dependent protocol, hNav1.5, read-out: IWQ Use Nav1.5) of less than 5.30.

From patent US9340590B2 (priority 2011, dated 2016)
